Here are results for one compound from ChEMBL document CHEMBL1143539, “A fluorimetric assay for the spontaneous release of an N7-alkylguanine residue from duplex DNA” (Bioorg Med Chem Lett, 2005).

Holding throughout (assay type): ADME
Data set [1] in a line: Half-life by fluorescence method at 25 degrees C.
Data set [2] can be described thus: Half-life by fluorescence method at 30 degrees C.
Data set [3] in a line: Half-life by fluorescence method at 37 degrees C.

`C[C@H]1NC(=O)CC2([C@@](C)(O)C(=O)O)CC[C@@](C)(n3cnc4nc(N)nc(O)c43)[C@@H](S2)[C@@H](O)C(=O)/C=C/C=C\c2csc1n2`: the results for the half-life in data set [1], in data set [2] and in data set [3] were 660 min, 276 min and 132 min, respectively.

As a reminder, the half-life is how long it takes for the measured level to halve. Higher therefore signals slow decline.
